Bounds are passed on as bounds.

The test has as its target T1, wild-type LRRK2 (Homo sapiens, UniProt Q5S007).
T1 construct: DNA tag for qPCR detection (not a peptide; the protein part that carries it is not described); made in house; host or cells: HEK 293 cells (the same paragraph also describes T7 phage grown in E. coli BL21)
The test is described as follows: Inhibitory activity against LRRK2: competition binding to ligand-affinity beads, DNA-tagged kinase quantitated by qPCR. Particulars: % of ctrl; for remaining binding at 0.01 µM: 10 nM compound, read-out: LRRK2(WT) Remaining kinase activity(%) at 10 nM; for remaining binding at 0.05 µM: 50 nM compound, read-out: LRRK2(WT) Remaining kinase activity(%) at 50 nM. The protocol:
Representative compounds synthesized in Example 1 were assayed for inhibitory activity against wild-type LRRK2 and mutant LRRK2 (G2019S), and the results are summarized in Tables 2 and 3. In brief, a T7 phase strain carrying the wild-type kinase consisting of amino acid residues from H970 to E2527 of human-derived LRRK2 (Accession no. NP_940980.3) or a T7 phase strain carrying the G2019S mutation kinase was infected into E. coli strain BL21 which was then grown until log phase. After infection with T7 phases (multiplicity of infection=0.4), the cells were cultured at 32° C. for 90-150 minutes while shaking. Then, E. coli lysates were centrifuged (6,000×g) and the supernatant was filtered through a 0.2-μm filter. The kinases were produced in HEK 293 cells. In this regard, DNA was tagged to obtain DNA-tagged kinases for qPCR detection. For use in analyzing the kinases, affinity resins were prepared by treating streptavidin-coated magnetic beads with biotinylated small molecule ligands at room temperature for 30 minutes. Then, the liganded beads were blocked with an excess of biotin and washed with a blocking buffer (SeaBlock (Pierce), 1% BSA, 0.05% Tween 20, 1 mM DTT) to remove unbound ligands and thus to reduce the binding of non-specific phages. […] After one hour of incubation, the affinity beads were washed with a wash buffer (1×PBS, 0.05% Tween 20), resuspended in an elution buffer (1×PBS, 0.05% Tween 20, 0.5 μM non-biotinylated affinity ligand), and incubated at room temperature for 30 minutes while shaking. Afterwards, concentrations of wild-type LRRK2 and mutant LRRK2 (G2019S) in the eluted samples were quantitated by qPCR. Activity values are expressed as percentages relative to the control (% of ctrl). The compounds used in the activity assay were prepared into 40× stocks in 100% DMSO. The stocks were directly diluted during analysis procedures.
Table 2 includes inhibitory activities of the representative compounds of the present disclosure at 100 nM against wild-type LRRK2 and mutant LRRK2 (G2019S) while Table 3 includes inhibitory activities of the representative compounds at 10 nM and 50 nM against wild-type LRRK2. (+++ less than 10%; ++ less than 30%; + less than 50%; −50% or higher)
For orientation: In qPCR the cycle at which signal appears reflects the starting amount.

T1 sequence (Q5S007 970-2527): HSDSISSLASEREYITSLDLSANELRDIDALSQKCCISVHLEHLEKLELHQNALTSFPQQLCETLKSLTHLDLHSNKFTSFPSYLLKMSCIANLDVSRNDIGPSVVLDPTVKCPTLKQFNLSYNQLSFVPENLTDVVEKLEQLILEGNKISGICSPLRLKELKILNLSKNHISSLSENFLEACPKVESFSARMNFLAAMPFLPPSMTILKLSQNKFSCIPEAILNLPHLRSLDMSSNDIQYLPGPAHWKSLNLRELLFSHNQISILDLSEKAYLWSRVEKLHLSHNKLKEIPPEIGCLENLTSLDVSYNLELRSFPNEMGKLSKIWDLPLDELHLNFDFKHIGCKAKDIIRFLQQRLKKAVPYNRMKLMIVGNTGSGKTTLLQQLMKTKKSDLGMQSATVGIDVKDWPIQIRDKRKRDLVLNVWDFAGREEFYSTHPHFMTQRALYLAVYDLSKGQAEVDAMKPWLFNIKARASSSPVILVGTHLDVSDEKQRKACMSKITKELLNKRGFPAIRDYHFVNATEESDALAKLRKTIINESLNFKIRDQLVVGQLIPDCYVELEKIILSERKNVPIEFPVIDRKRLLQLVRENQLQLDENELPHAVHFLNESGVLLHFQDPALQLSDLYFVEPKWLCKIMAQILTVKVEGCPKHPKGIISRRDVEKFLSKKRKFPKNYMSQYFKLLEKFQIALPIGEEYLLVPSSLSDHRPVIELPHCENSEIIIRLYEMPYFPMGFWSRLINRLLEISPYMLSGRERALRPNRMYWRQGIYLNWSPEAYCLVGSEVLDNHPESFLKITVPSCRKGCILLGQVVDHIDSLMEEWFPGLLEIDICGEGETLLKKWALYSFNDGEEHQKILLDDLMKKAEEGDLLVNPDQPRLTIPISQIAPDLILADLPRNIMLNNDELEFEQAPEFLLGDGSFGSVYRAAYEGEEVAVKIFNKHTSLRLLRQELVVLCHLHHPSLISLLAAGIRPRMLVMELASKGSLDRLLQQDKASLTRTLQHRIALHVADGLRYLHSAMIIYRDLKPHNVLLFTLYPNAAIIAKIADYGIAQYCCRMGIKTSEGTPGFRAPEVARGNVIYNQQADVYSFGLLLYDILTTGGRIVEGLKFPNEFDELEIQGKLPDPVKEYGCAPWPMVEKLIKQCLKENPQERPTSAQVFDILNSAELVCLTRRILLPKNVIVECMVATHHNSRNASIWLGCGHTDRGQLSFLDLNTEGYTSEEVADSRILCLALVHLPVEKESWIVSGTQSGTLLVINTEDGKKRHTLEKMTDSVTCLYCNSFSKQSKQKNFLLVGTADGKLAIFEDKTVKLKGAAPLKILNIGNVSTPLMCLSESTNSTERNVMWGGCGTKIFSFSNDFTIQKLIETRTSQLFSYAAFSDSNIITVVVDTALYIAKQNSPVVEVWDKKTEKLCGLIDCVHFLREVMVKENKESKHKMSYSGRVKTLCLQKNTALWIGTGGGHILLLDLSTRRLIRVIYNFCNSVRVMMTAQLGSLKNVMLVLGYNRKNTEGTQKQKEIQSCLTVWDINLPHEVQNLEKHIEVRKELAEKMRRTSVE

For `COc1cc(C(=O)NC2CCC(N(C)C)CC2)ccc1Nc1ncc(Cl)c(-c2cnn(C(C)C)c2)n1` (centres unmarked) [Compound 93, 4-((5-chloro-4-(1-isopropyl-1H-pyrazol-4-yl)pyrimidin-2-yl)amino)-N-(4-(dimethylamino)cyclohexyl)-3-methoxybenzamide], the remaining binding at 0.01 µM is < 50% and the remaining binding at 0.05 µM was < 10%.
Take `COc1cc(C(=O)N2CCC(N(C)C)CC2)ccc1Nc1ncc(Cl)c(-c2cnn(C(C)C)c2)n1` [Compound 94, (4-((5-chloro-4-(1-isopropyl-1H-pyrazol-4-yl)pyrimidin-2-yl)amino)-3-methoxyphenyl)(4-(dimethylamino)piperidin-1-yl)methanone]: the remaining binding at 0.01 µM is < 30% and the remaining binding at 0.05 µM is < 10%.
The like results for `COc1cc(C(=O)N2[C@@H]3CC[C@H]2COC3)ccc1Nc1ncc(Cl)c(-c2cnn(C(C)C)c2)n1` [Compound 95, ((1R,5S)-3-oxa-8-azabicyclo[3.2.1]octan-8-yl)(4-((5-chloro-4-(1-isopropyl-1H-pyrazol-4-yl)pyrimidin-2-yl)amino)-3-methoxyphenyl)methanone] were, in that order, ≥ 50% and < 30%.
The like results for `COc1cc(C(=O)NC2CCN(C)CC2)ccc1Nc1ncc(Cl)c(-c2cnn(C(C)(C)C)c2)n1` [Compound 96, 4-((4-(1-(tert-butyl)-1H-pyrazol-4-yl)-5-chloropyrimidin-2-yl)amino)-3-methoxy-N -(1-methylpiperidin-4-yl)benzamide] were, in that order, ≥ 50% and < 30%.
The like results for `COc1cc(C(=O)N2CC3CN(C)CC3C2)ccc1Nc1ncc(Cl)c(-c2cnn(C(C)C)c2)n1` (centres unmarked) [Compound 98, (4-((5-chloro-4-(1-isopropyl-1H-pyrazol-4-yl)pyrimidin-2-yl)amino)-3-methoxyphenyl)(5-methylhexahydropyrrolo[3,4-c]pyrrol-2(1H)-yl)methanone] were, in that order, < 30% and < 10%.
Turning to `COc1cc(C(=O)NC2CCN(C(C)C)CC2)ccc1Nc1ncc(Cl)c(-c2cnn(C(C)C)c2)n1` [Compound 99, 4-((5-chloro-4-(1-isopropyl-1H-pyrazol-4-yl)pyrimidin-2-yl)amino)-N-(1-isopropylpiperidin-4-yl)-3-methoxybenzamide], the remaining binding at 0.01 µM is < 50% and the remaining binding at 0.05 µM was < 30%.
On to `COc1cc(C(=O)N(C)C)ccc1Nc1ncc(Cl)c(-c2cnn(C(C)C)c2)n1` [Compound 101, 4-((5-chloro-4-(1-isopropyl-1H-pyrazol-4-yl)pyrimidin-2-yl)amino)-3-methoxy-N,N-dimethylbenzamide], for which the remaining binding at 0.01 µM was ≥ 50% and the remaining binding at 0.05 µM was < 50%.
In the same order, the values of `COc1cc(C(=S)N2CCN(C)CC2)c(F)cc1Nc1ncc(Cl)c(-c2cnn(C(C)C)c2)n1` [Compound 102, (4-((5-chloro-4-(1-isopropyl-1H-pyrazol-4-yl)pyrimidin-2-yl)amino)-2-fluoro-5-methoxyphenyl)(4-methylpiperazin-1-yl) methanethione] are < 50% and < 10%.
The like results for `COc1cc(C(=S)N2CCN(C)CC2)ccc1Nc1ncc(Cl)c(-c2cnn(C(C)C)c2)n1` [Compound 103, (4-((5-chloro-4-(1-isopropyl-1H-pyrazol-4-yl)pyrimidin-2-yl)amino)-3-methoxyphenyl)(4-methylpiperazin-1-yl) methanethione] were, in that order, < 30% and < 10%.
In the same order, the values of `COc1cc(C(=O)N2CCN(C)CC2)c(F)cc1Nc1ncc(Cl)c(-c2cnn(C(C)C)c2)n1` [Compound 104, (4-((5-chloro-4-(1-isopropyl-1H-pyrazol-4-yl)pyrimidin-2-yl)amino)-2-fluoro-5-methoxyphenyl)(4-methylpiperazin-1-yl)methanone] are ≥ 50% and < 30%.
Regarding `CC(C)n1cc(-c2nc(Nc3ccc(C(=O)N4CCOCC4)cc3OC(F)F)ncc2Cl)cn1` [Compound 105, (4-((5-chloro-4-(1-isopropyl-1H-pyrazol-4-yl)pyrimidin-2-yl)amino)-3-(difluoromethoxy)phenyl)(morpholino)methanone], the remaining binding at 0.01 µM was < 50% and the remaining binding at 0.05 µM was < 30%.
In the same order, the values of `COc1cc(C(=S)N2CCOCC2)c(F)cc1Nc1ncc(Cl)c(-c2cnn(C(C)C)c2)n1` [Compound 106, (4-((5-chloro-4-(1-isopropyl-1H-pyrazol-4-yl)pyrimidin-2-yl)amino)-2-fluoro-5-methoxyphenyl)(morpholino) methanethione] are ≥ 50% and < 30%.
`CC(C)n1cc(-c2nc(Nc3ccc(C(=O)N4CCN(C)CC4)cc3OC(F)F)ncc2Cl)cn1` [Compound 108, (4-((5-chloro-4-(1-isopropyl-1H-pyrazol-4-yl)pyrimidin-2-yl)amino)-3-(difluoromethoxy)phenyl)(4-methylpiperazin-1-yl)methanone]: the remaining binding at 0.01 µM is ≥ 50% and the remaining binding at 0.05 µM was < 30%.
The like results for `Cc1cc(C(=O)N2CCN(C)CC2)ccc1Nc1ncc(Cl)c(-c2cnn(C(C)C)c2)n1` [Compound 109, (4-((5-chloro-4-(1-isopropyl-1H-pyrazol-4-yl)pyrimidin-2-yl)amino)-3-methylphenyl)(4-methylpiperazin-1-yl)methanone] were, in that order, ≥ 50% and < 30%.
In the same order, the values of `COc1cc(C(=O)N2CCC(N(C)C)CC2)c(F)cc1Nc1ncc(Cl)c(-c2cnn(C(C)C)c2)n1` [Compound 110, (4-((5-chloro-4-(1-isopropyl-1H-pyrazol-4-yl)pyrimidin-2-yl)amino)-2-fluoro-5-methoxyphenyl)(4-(dimethylamino)piperidin-1-yl)methanone] are < 50% and < 10%.
Regarding `COc1cc(C(=O)Nc2ccccc2)ccc1Nc1ncc(Cl)c(-c2cnn(C(C)C)c2)n1` [Compound 112, 4-((5-chloro-4-(1-isopropyl-1H-pyrazol-4-yl)pyrimidin-2-yl)amino)-3-methoxy-N-phenylbenzamide], the remaining binding at 0.01 µM is < 50% and the remaining binding at 0.05 µM is < 30%.
As to `COc1cc(C(=O)NCc2ccc(C)cc2)ccc1Nc1ncc(Cl)c(-c2cnn(C(C)C)c2)n1` [Compound 126, 4-((5-chloro-4-(1-isopropyl-1H-pyrazol-4-yl)pyrimidin-2-yl)amino)-3-methoxy-N-(4-methylbenzyl)benzamide], the remaining binding at 0.01 µM was ≥ 50% and the remaining binding at 0.05 µM is < 50%.
The like results for `COc1cc(C(=O)Nc2ccc(N(C)C)cc2)ccc1Nc1ncc(Cl)c(-c2cnn(C(C)C)c2)n1` [Compound 127, 4-((5-chloro-4-(1-isopropyl-1H-pyrazol-4-yl)pyrimidin-2-yl)amino)-N-(4-(dimethylamino)phenyl)-3-methoxybenzamide] were, in that order, < 50% and < 30%.
In the same order, the values of `COc1cc(C(=O)NCc2ccc(C#N)cc2)ccc1Nc1ncc(Cl)c(-c2cnn(C(C)C)c2)n1` [Compound 128, 4-((5-chloro-4-(1-isopropyl-1H-pyrazol-4-yl)pyrimidin-2-yl)amino)-N-(4-cyanobenzyl)-3-methoxybenzamide] are ≥ 50% and < 50%.
The like results for `COc1cc(C(=O)NC2Cc3ccccc3C2)ccc1Nc1ncc(Cl)c(-c2cnn(C(C)C)c2)n1` [Compound 129, 4-((5-chloro-4-(1-isopropyl-1H-pyrazol-4-yl)pyrimidin-2-yl)amino)-N-(2,3-dihydro-1H-inden-2-yl)-3-methoxybenzamide] were, in that order, ≥ 50% and < 50%.
For the compound `COc1cc(C(=O)NCC2CCOC2)ccc1Nc1ncc(Cl)c(-c2cnn(C(C)C)c2)n1` (centres unmarked) [Compound 130, 4-((5-chloro-4-(1-isopropyl-1H-pyrazol-4-yl)pyrimidin-2-yl)amino)-3-methoxy-N-((tetrahydrofuran-3-yl)methyl)benzamide], the remaining binding at 0.01 µM is ≥ 50% and the remaining binding at 0.05 µM was < 30%.
The like results for `COc1cc(C(=O)NCCO)ccc1Nc1ncc(Cl)c(-c2cnn(C(C)C)c2)n1` [Compound 138, 4-((5-chloro-4-(1-isopropyl-1H-pyrazol-4-yl)pyrimidin-2-yl)amino)-N-(2-hydroxyethyl)-3-methoxybenzamide] were, in that order, ≥ 50% and < 50%.

The values are drawn from US20240254103A9, “NOVEL PYRIMIDINE DERIVATIVE, AND COMPOSITION FOR PREVENTING OR TREATING NEURODEGENERATIVE DISEASES AND CANCER, COMPRISING SAME” (WHAN IN PHARMACEUTICAL CO., LTD., priority 2020, published 2024).
